Patent US20260000632A1, “STRUCTURALLY MODIFIED FATTY ACIDS FOR IMPROVING GLYCEMIC CONTROL AND TREATING INFLAMMATORY BOWEL DISEASE” (Northsea Therapeutics B.V., priority 2018, published 2026)
Several values for one entry are separate records, joined by “and”; a condition that tells them apart may be missing. Equal values may be shown once.

What was measured:
[1] = Excretion balance of radioactivity after single oral [14C]-Compound B; format: in vivo, rat; settings: male albino rats, single oral [14C]-Compound B 50 mg/kg
Description: To assess Compound B clearance via urine versus feces, the excretion pattern of a single oral dose of [14C]-Compound B was determined in male albino rats. […] The total excretion of radioactivity following oral administration was >95% within the first 48 hours. Excretion via the urine accounted for 12% of the administered dose. […]

[2] = test system: atherogenic lipids; settings: APOE*3.CETP mice; cited from earlier work
[3] = test system: IL6, IL1b, S100A8, TNFα, Reg3g, IL17a mRNA; test: Colonic mRNA levels of cytokines and biomarkers by real-time PCR in DSS-induced colitis mice; format: in vivo, mouse; settings: 126 and 252 mg/kg per day, relative to HPRT
Description: The C56BL/6J mouse is a strain susceptible to DSS-induced colitis. To evaluate the efficacy and dosage of Compound B in treatment of DSS-induced colitis, inflammation was induced in 30 9-week old C56BL/6J mice by adding 1.5% DSS to the drinking water for 7 days. The mice were fed a standard chow diet that consisted of 30 weight percent wheat. The mice were divided into three groups of 10, and for each day of DSS administration each group was administered via oral gavage either (1) 100 μL corn oil per day (Control), (2) 126 mg/kg Compound B (dissolved in 100 μL corn oil) per day (“Compound B-Low” or “Compound B-L”), or (3) 252 mg/kg Compound B (dissolved in 100 μL corn oil) per day (“Compound B-High” or “Compound B-H”). Following the 7-day period of DSS induction, mice were sacrificed and their intestinal tissue was used for histopathological and gene expression analysis.
To evaluate the effect of treatment with Compound B on the levels of proinflammatory cytokines and biomarkers, total RNA was extracted from small and large intestinal tissue samples (>100 mg). cDNA was synthesized by reverse transcription and analyzed by real-time PCR. Results were normalized to the level of the housekeeping gene hypoxanthine guanine phosphoribosyltransferase (HPRT). The relative mRNA expression of the tested gene relative to HPRT expression was calculated using the 2^−ΔΔCt method as described in Pickert et al., J. Exp. Med., 2009, 206:1465-1472. Interleukin 6 (IL6), IL1b, calgranulin-A (S100A8), and tumor necrosis factor α (TNFα) have been implicated as mediators of IBD, including both ulcerative colitis and Crohn's disease. IL6, IL1b, and calgranulin-A are prominently expressed in inflammatory macrophages. IL22-dependent regenerating islet-derived 3 gamma (Reg3g) is induced in response to inflammation in epithelial cells. IL17 is secreted by Th17 T helper cells and innate lymphoid cells type 3 (ILC3).

[4] = Intestinal tissue distribution of radioactivity by quantitative whole-body autoradiography (QWBA); format: in vivo; settings: male albino rat, single oral [14C]-Compound B 50 mg/kg
Description: This study was conducted to determine the intestinal tissue distribution of radioactivity in male albino rats following a single oral administration of [14C]-Compound B using quantitative whole-body autoradiography (QWBA). The tissue distribution in rats following a single oral dose of [14C]-Compound B at 50 mg/kg (ca 5 MBq/kg) was studied by QWBA analysis up to 168 hours after dosing.

[5] = 1 hour, *affected by high levels of radioactivity in adjacent contents
[6] = 2 hours, *affected by high levels of radioactivity in adjacent contents
[7] = 4 hours, *affected by high levels of radioactivity in adjacent contents
[8] = 8 hours, *affected by high levels of radioactivity in adjacent contents

CC/C=C\C/C=C\C/C=C\C/C=C\C/C=C\CCCCSC(CC)(CC)C(=O)O [Compound B, 2-ethyl-2-((5Z,8Z,11 Z,14Z,17Z)-icosa-5,8,11,14,17-pentaenylthio)butanoic acid]
Total excretion of radioactivity within the first 48 hours [1]: > 95%
% Recovery of Administered Dose (Mean), Cage debris (0-168 h) ([1]; n = 3): 0.038%
% Recovery of Administered Dose (Mean), Carcass (168 h) ([1]; n = 3): 1.14%
% Recovery of Administered Dose (Mean), Faeces (0-168 h) ([1]; n = 3): 86% and 85.8%
% Recovery of Administered Dose (Mean), Mean total radioactivity (0-168 h) ([1]; n = 3): 101%
% Recovery of Administered Dose (Mean), Urine (0-168 h) ([1]; n = 3): 12% and 12.4%
% Recovery of Administered Dose (Mean), Cage wash (0-168 h) ([1]; n = 3, includes final cage wash): 1.27%
Effect on atherogenic lipids [2]: significantly reduce atherogenic lipids
Expression of IL17a [3]: lack of change
mRNA levels of IL1b compared to untreated mice [3]: dose-dependent decrease
mRNA levels of IL6 compared to untreated mice [3]: dose-dependent decrease
mRNA levels of Reg3g compared to untreated mice [3]: dose-dependent decrease
mRNA levels of S100A8 compared to untreated mice [3]: dose-dependent decrease
mRNA levels of TNFα compared to untreated mice [3]: dose-dependent decrease
Time of peak concentrations in the small intestinal mucosa [4]: 4 h
Radioactivity concentration, Caecum mucosa ([4]; 1 hour): 1.04 μg equivalents of Compound B/g of tissue
Radioactivity concentration, Large intestine mucosa ([4]; 1 hour): 0.740 μg equivalents of Compound B/g of tissue
Radioactivity concentration, Oesophageal wall ([4]; 1 hour): 5.83 μg equivalents of Compound B/g of tissue
Radioactivity concentration, Rectum mucosa ([4]; 1 hour): 0.417 μg equivalents of Compound B/g of tissue
Radioactivity concentration, Stomach mucosa (fundus) ([4]; 1 hour): 8.08 μg equivalents of Compound B/g of tissue
Radioactivity concentration, Small intestine mucosa [4, 5]: 127* μg equivalents of Compound B/g of tissue
Radioactivity concentration, Stomach mucosa (non-fundic) [4, 5]: 17.3* μg equivalents of Compound B/g of tissue
Radioactivity concentration, Caecum mucosa ([4]; 2 hours): 1.73 μg equivalents of Compound B/g of tissue
Radioactivity concentration, Large intestine mucosa ([4]; 2 hours): 0.332 μg equivalents of Compound B/g of tissue
Radioactivity concentration, Oesophageal wall ([4]; 2 hours): 1.72 μg equivalents of Compound B/g of tissue
Radioactivity concentration, Rectum mucosa ([4]; 2 hours): 0.883 μg equivalents of Compound B/g of tissue
Radioactivity concentration, Stomach mucosa (fundus) ([4]; 2 hours): 4.31 μg equivalents of Compound B/g of tissue
Radioactivity concentration, Small intestine mucosa [4, 6]: 56.5* μg equivalents of Compound B/g of tissue
Radioactivity concentration, Stomach mucosa (non-fundic) [4, 6]: 28.1* μg equivalents of Compound B/g of tissue
Radioactivity concentration, Large intestine mucosa ([4]; 4 hours): 0.920 μg equivalents of Compound B/g of tissue
Radioactivity concentration, Oesophageal wall ([4]; 4 hours): 1.29 μg equivalents of Compound B/g of tissue
Radioactivity concentration, Rectum mucosa ([4]; 4 hours): 1.03 μg equivalents of Compound B/g of tissue
Radioactivity concentration, Stomach mucosa (fundus) ([4]; 4 hours): 5.38 μg equivalents of Compound B/g of tissue
Radioactivity concentration, Caecum mucosa [4, 7]: 93.1* μg equivalents of Compound B/g of tissue
Radioactivity concentration, Small intestine mucosa [4, 7]: 158* μg equivalents of Compound B/g of tissue
Radioactivity concentration, Stomach mucosa (non-fundic) [4, 7]: 300* μg equivalents of Compound B/g of tissue
Radioactivity concentration, Oesophageal wall ([4]; 8 hours): 5.86 μg equivalents of Compound B/g of tissue
Radioactivity concentration, Small intestine mucosa ([4]; 8 hours): 42.7 μg equivalents of Compound B/g of tissue
Radioactivity concentration, Stomach mucosa (fundus) ([4]; 8 hours): 7.84 μg equivalents of Compound B/g of tissue
Radioactivity concentration, Caecum mucosa [4, 8]: 112* μg equivalents of Compound B/g of tissue
Radioactivity concentration, Large intestine mucosa [4, 8]: 120* μg equivalents of Compound B/g of tissue
Radioactivity concentration, Rectum mucosa [4, 8]: 3.57* μg equivalents of Compound B/g of tissue
Radioactivity concentration, Stomach mucosa (non-fundic) [4, 8]: 252* μg equivalents of Compound B/g of tissue
Radioactivity concentration, Large intestine mucosa ([4]; 1 day): 2.63 μg equivalents of Compound B/g of tissue
Radioactivity concentration, Oesophageal wall ([4]; 1 day): 2.25 μg equivalents of Compound B/g of tissue
Radioactivity concentration, Rectum mucosa ([4]; 1 day): 0.870 μg equivalents of Compound B/g of tissue
Radioactivity concentration, Small intestine mucosa ([4]; 1 day): 22.6 μg equivalents of Compound B/g of tissue
Radioactivity concentration, Stomach mucosa (fundus) ([4]; 1 day): 1.15 μg equivalents of Compound B/g of tissue
Radioactivity concentration, Stomach mucosa (non-fundic) ([4]; 1 day): 3.87 μg equivalents of Compound B/g of tissue
Radioactivity concentration, Caecum mucosa ([4]; 1 day, *affected by high levels of radioactivity in adjacent contents): 113* μg equivalents of Compound B/g of tissue
Radioactivity concentration, Caecum mucosa ([4]; 3 days): 0.319 μg equivalents of Compound B/g of tissue
Radioactivity concentration, Large intestine mucosa ([4]; 3 days): 1.06 μg equivalents of Compound B/g of tissue
Radioactivity concentration, Oesophageal wall ([4]; 3 days): BLQ (Tissue concentration below lower limit of quantification)
Radioactivity concentration, Rectum mucosa ([4]; 3 days): BLQ (Tissue concentration below lower limit of quantification)
Radioactivity concentration, Small intestine mucosa ([4]; 3 days): 0.197 μg equivalents of Compound B/g of tissue
Radioactivity concentration, Stomach mucosa (fundus) ([4]; 3 days): BLQ (Tissue concentration below lower limit of quantification)
Radioactivity concentration, Stomach mucosa (non-fundic) ([4]; 3 days): 0.253 μg equivalents of Compound B/g of tissue
Radioactivity concentration, Caecum mucosa ([4]; 7 days): 0.374 μg equivalents of Compound B/g of tissue
Radioactivity concentration, Large intestine mucosa ([4]; 7 days): 0.296 μg equivalents of Compound B/g of tissue
Radioactivity concentration, Oesophageal wall ([4]; 7 days): BLQ (Tissue concentration below lower limit of quantification)
Radioactivity concentration, Rectum mucosa ([4]; 7 days): 0.641 μg equivalents of Compound B/g of tissue
Radioactivity concentration, Small intestine mucosa ([4]; 7 days): BLQ (Tissue concentration below lower limit of quantification)
Radioactivity concentration, Stomach mucosa (fundus) ([4]; 7 days): BLQ (Tissue concentration below lower limit of quantification)
Radioactivity concentration, Stomach mucosa (non-fundic) ([4]; 7 days): BLQ (Tissue concentration below lower limit of quantification)
